Experimental data as given in US8871767B2, “2-arylimidazo[1,2-B]pyridazine, 2-phenylimidazo[1,2-A]pyridine, and 2-phenylimidazo[1,2-A]pyrazine derivatives” (Hengrui (USA) Ltd., priority 2010, dated 2014).

System: Hedgehog pathway activation (GLi-luciferase reporter) in Shh Light II reporter cells
Test: Hedgehog pathway activation on Shh Light II reporter cells measured by luciferase activity
Assay type: cell-based
Conditions: Mus musculus, Shh Light II, hShh activation, read-out: Shh (IC50, inhibition of Hedgehog pathway activation)
Protocol: Hedgehog conditioned media was obtained by transfecting 293H cells with the full length gene encoding human Sonic Hedgehog (hShh) inserted into the pCMV6 expression vector, which contains a neomycin selectable marker and expresses the protein of interest with a C-terminal FLAG affinity tag. After selection in G418 containing media, conditioned media from Hedgehog expressing clones were tested for the ability to activate the hedgehog-responsive GLi-luciferase reporter in the Shh Light II cell line obtained by license from John Hopkins University (Taipale J, et al. Effects of oncogenic mutations in Smoothened and Patched can be reversed by cyclopamine. Nature 406: 1005-1009, 2000).
A test compound library was screened against hShh and 500 nM SAG (a direct agonist of the Smoothened receptor) activated 10T1/2/Smo#3 cells and Shh Light II reporter cells for the ability to block Hedgehog pathway activation. Concurrently, cell viability was measured by utilizing Celltiter-Blue® (Promega, Madison Wis.) viability assay. Active compounds were defined as those that inhibited Hedgehog signaling by greater than 50% with no concurrent loss in cell viability.
Their inhibitory activity against Hedgehog pathway activation on 10T1/2/Smo#3 cells as measured by ALP activity and Shh Light II reporter cells as measured by luciferase activity is shown in Table 1 below. In Table 1, +++ stands for an IC50 value that is less than 0.3 μM, ++ between 0.3 and 3 μM, + between 3 and 30 μM.
Additional data for compounds of the invention is shown below in Table 2. Their inhibitory activities against Hedgehog pathway activation are shown as IC50 values in μM on 10T1/2/Smo#3 cells as measured by ALP activity, or on Shh Light II reporter cells as measured by luciferase activity (hShh activation).

SMILES	IC50 [nM]
Cc1ccc(-c2cn3nc(-c4cccc(NC(=O)CCCCCCC(=O)NO)n4)ccc3n2)cc1NC(=O)C(C)(C)C [compound 580, N1-hydroxy-N8-(6-(2-(4-methyl-3-pivalamidophenyl)imidazo[1,2-b]pyridazin-6-yl)pyridin-2-yl)octanediamide]	1320
Cc1ccc(-c2cn3nc(NCc4ccc(CO)cc4)ccc3n2)cc1NC(=O)C(C)(C)C [compound 593]	2040
Cc1ccc(-c2cn3nc(NS(=O)(=O)c4cccc(Br)c4)ccc3n2)cc1NC(=O)C(C)(C)C [compound 595]	348
COC(=O)CCCCCCC(=O)Nc1cc(-c2cn3nc(-c4cccnc4C(F)(F)F)ccc3n2)ccc1C [Example 420, methyl 8-(2-methyl-5-(6-(2-(trifluoromethyl)pyridin-3-yl)imidazo[1,2-b]pyridazin-2-yl)phenylamino)-8-oxooctanoate]	1370
C#Cc1ccc(-c2cn3nc(-c4ccccc4F)ccc3n2)cc1N [Example 320, 2-ethynyl-5-(6-(2-fluorophenyl)imidazo[1,2-b]pyridazin-2-yl)aniline]	9260
Cc1ccc(-c2cn3nc(-c4ccc(C(F)(F)F)nc4)ccc3n2)cc1NC(=O)C(C)(C)C [Example 322, N-(2-methyl-5-(6-(6-(trifluoromethyl)pyridin-3-yl)imidazo[1,2-b]pyridazin-2-yl)phenyl)pivalamide]	917
COc1ccc(F)c(-c2ccc3nc(-c4ccc(C(F)(F)F)c(NC(=O)C(C)(C)C)c4)cn3n2)c1 [Example 228, N-(5-(6-(2-fluoro-5-methoxyphenyl)imidazo[1,2-b]pyridazin-2-yl)-2-(trifluoromethyl)phenyl)pivalamide]	325
Cc1ccc(-c2cn3nc(-c4c[nH]nc4C)ccc3n2)cc1NC(=O)C(C)(C)C [compound 500]	450
Cc1ccc(-c2cn3nc(-c4ccc(OCCCCC(=O)NO)cc4C(F)(F)F)ccc3n2)cc1NC(=O)C(C)(C)C [Example 454, N-hydroxy-5-(4-(2-(4-methyl-3-pivalamidophenyl)imidazo[1,2-b]pyridazin-6-yl)-3-(trifluoromethyl)phenoxy)pentanamide]	2050
Cc1ccc(-c2cn3nc(-c4c(C)noc4C)ccc3n2)cc1NC(=O)C(C)(C)C [compound 502]	580
COC(=O)c1ccc(-c2ccc3nc(-c4ccc(C)c(NC(=O)C(C)(C)C)c4)cn3n2)cc1 [compound 582]	1140
Cc1ccc(-c2cn3nc(-c4ccc(O)cc4F)ccc3n2)cc1NC(=O)C(C)(C)C [compound 547]	793
CNC(=O)c1ccccc1-c1ccc2nc(-c3ccc(C)c(NC(=O)C(C)(C)C)c3)cn2n1 [Example 452, N-methyl-2-(2-(4-methyl-3-pivalamidophenyl)imidazo[1,2-b]pyridazin-6-yl)benzamide]	385
CC(C)(C)C(=O)Nc1cc(-c2cn3nc(N4CCNCC4)ccc3n2)ccc1C(F)(F)F [Example 328, N-(5-(6-(piperazin-1-yl)imidazo[1,2-b]pyridazin-2-yl)-2-(trifluoromethyl)phenyl)pivalamide]	3540
CN1CCN(c2ccc3nc(-c4ccc(C(F)(F)F)c(NC(=O)C(C)(C)C)c4)cn3n2)CC1 [Example 316, N-(5-(6-(4-methylpiperazin-1-yl)imidazo[1,2-b]pyridazin-2-yl)-2-(trifluoromethyl)phenyl)pivalamide]	937
CC(C)(C)C(=O)Nc1cc(-c2cn3nc(NC4CCCCC4O)ccc3n2)ccc1C(F)(F)F (stereo not shown) [Example 333, N-(5-(6-(2-hydroxycyclohexylamino)imidazo[1,2-b]pyridazin-2-yl)-2-(trifluoromethyl)phenyl)pivalamide]	893

SMILES	IC50 [nM]
CCOC(=O)COc1cc(-c2ccc3nc(-c4ccc(C)c(NC(=O)C(C)(C)C)c4)cn3n2)cc(C(F)(F)F)n1 [Example 475, ethyl 2-(4-(2-(4-methyl-3-pivalamidophenyl)imidazo[1,2-b]pyridazin-6-yl)-6-(trifluoromethyl)pyridin-2-yloxy)acetate]	2610
Cc1ccc(-c2cn3nc(-c4cccc(N)n4)ccc3n2)cc1NC(=O)C(C)(C)C [compound 575, N-(5-(6-(6-aminopyridin-2-yl)imidazo[1,2-b]pyridazin-2-yl)-2-methylphenyl)pivalamide]	599
Cc1ccc(-c2cn3nc(-c4cccnc4C(F)(F)F)ccc3n2)cc1-c1cccc(C(F)(F)F)n1 [Example 441, 2-(4-methyl-3-(6-(trifluoromethyl)pyridin-2-yl)phenyl)-6-(2-(trifluoromethyl)pyridin-3-yl)imidazo[1,2-b]pyridazine]	2560
Cc1ccc(-c2cn3nc(-c4ccc(C(N)=NO)cc4C)ccc3n2)cc1NC(=O)C(C)(C)C [compound 576]	155
CCOC(=O)CCCCCNC1CCN(c2ccc3nc(-c4ccc(C)c(NC(=O)C(C)(C)C)c4)cn3n2)C1 (stereo not shown) [Example 414, ethyl 6-(1-(2-(4-methyl-3-pivalamidophenyl)imidazo[1,2-b]pyridazin-6-yl)pyrrolidin-3-ylamino)hexanoate]	947
Cc1ccc(-c2cn3nc(-c4ccc(NC(=O)CCCCCCC(=O)O)cc4)ccc3n2)cc1NC(=O)C(C)(C)C [compound 561]	2300
Cc1ccc(-c2cn3nc(-c4cc(C(F)(F)F)ccn4)ccc3n2)cc1NC(=O)C(C)(C)C [Example 456, N-(2-methyl-5-(6-(4-(trifluoromethyl)pyridin-2-yl)imidazo[1,2-b]pyridazin-2-yl)phenyl)pivalamide]	365
CCOC(=O)C=Cc1cccc(S(=O)(=O)Nc2cc(-c3cn4nc(Cl)ccc4n3)ccc2C)c1 [compound 607]	2100
COC(=O)CCCCCCN(C(=O)C(C)(C)C)c1cc(-c2cn3nc(-c4cccnc4C(F)(F)F)ccc3n2)ccc1C [compound 516, methyl 7-(N-(2-methyl-5-(6-(2-(trifluoromethyl)pyridin-3-yl)imidazo[1,2-b]pyridazin-2-yl)phenyl)pivalamido)heptanoate]	1710
CCN1CCN(c2ccc3nc(-c4ccc(C(F)(F)F)c(NC(=O)C(C)(C)C)c4)cn3n2)CC1 [Example 317, N-(5-(6-(4-ethylpiperazin-1-yl)imidazo[1,2-b]pyridazin-2-yl)-2-(trifluoromethyl)phenyl)pivalamide]	1250
CC(C)(C)C(=O)Nc1cc(-c2cn3nc(N4CCCC(O)C4)ccc3n2)ccc1C(F)(F)F (stereo not shown) [Example 336, N-(5-(6-(3-hydroxypiperidin-1-yl)imidazo[1,2-b]pyridazin-2-yl)-2-(trifluoromethyl)phenyl)pivalamide]	230
Cc1ccc(-c2cn3nc(-c4cccc(O)c4C(F)(F)F)ccc3n2)cc1NC(=O)C(C)(C)C [Example 398, N-(5-(6-(3-hydroxy-2-(trifluoromethyl)phenyl)imidazo[1,2-b]pyridazin-2-yl)-2-methylphenyl)pivalamide]	681
Cc1ccc(-c2cn3nc(-c4cccnc4C(F)(F)F)ccc3n2)cc1C(N)=O [Example 482, 2-methyl-5-(6-(2-(trifluoromethyl)pyridin-3-yl)imidazo[1,2-b]pyridazin-2-yl)benzamide]	> 10000
Cc1ccc(-c2cn3nc(-c4cccnc4C(F)(F)F)ccc3n2)cc1-c1c(C)noc1C [compound 507]	2500
Cc1ccc(-c2cn3nc(-c4ccc(C(N)=O)cn4)ccc3n2)cc1NC(=O)C(C)(C)C [compound 538, 6-(2-(4-methyl-3-pivalamidophenyl)imidazo[1,2-b]pyridazin-6-yl)nicotinamide]	430
